Results on 72 compounds are retold here after ChEMBL document CHEMBL1129323, “Comparative molecular moment analysis (CoMMA): 3D-QSAR without molecular superposition” (J Med Chem, 1996).

A short description of data set [1]: Hammett constant was evaluated. Type of data set: ADME.
Data set [2] deals with T1, Corticosteroid-binding globulin (Homo sapiens) (UniProt P08185).
T1 sequence (whole entry): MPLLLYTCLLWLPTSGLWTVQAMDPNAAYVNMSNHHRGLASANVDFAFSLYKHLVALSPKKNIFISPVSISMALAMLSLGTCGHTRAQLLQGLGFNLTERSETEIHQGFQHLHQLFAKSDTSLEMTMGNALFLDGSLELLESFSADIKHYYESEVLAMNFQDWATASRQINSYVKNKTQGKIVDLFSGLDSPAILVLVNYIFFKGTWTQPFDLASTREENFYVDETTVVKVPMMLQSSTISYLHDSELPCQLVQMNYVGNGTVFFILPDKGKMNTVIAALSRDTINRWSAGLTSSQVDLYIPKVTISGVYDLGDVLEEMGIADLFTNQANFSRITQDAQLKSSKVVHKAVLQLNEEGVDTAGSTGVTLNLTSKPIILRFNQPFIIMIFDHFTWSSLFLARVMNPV
Description: Binding affinity for corticosteroid binding globulin is expressed as log(1/k)

In data set [3] the target is T2, Sex hormone-binding globulin (Homo sapiens) (UniProt P04278).
T2 sequence (whole entry): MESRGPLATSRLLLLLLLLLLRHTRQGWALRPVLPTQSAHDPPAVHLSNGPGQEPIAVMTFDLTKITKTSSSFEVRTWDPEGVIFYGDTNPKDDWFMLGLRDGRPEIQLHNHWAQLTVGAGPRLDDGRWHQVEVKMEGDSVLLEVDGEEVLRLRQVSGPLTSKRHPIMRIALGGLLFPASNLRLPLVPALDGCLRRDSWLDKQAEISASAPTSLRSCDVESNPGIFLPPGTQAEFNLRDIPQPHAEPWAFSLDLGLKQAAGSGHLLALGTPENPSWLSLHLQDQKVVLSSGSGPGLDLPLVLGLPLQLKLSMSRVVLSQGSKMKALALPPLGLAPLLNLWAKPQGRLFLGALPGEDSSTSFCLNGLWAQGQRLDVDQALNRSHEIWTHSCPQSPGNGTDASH
Description: Binding affinity towards testosterone binding globulin is expressed as log(1/k).

Take `O=C(O)c1ccc(SC(F)(F)F)cc1`: in data set [1], the Hammett constant was 0.5.

In data set [1], `O=C(O)c1cccc(S(=O)(=O)F)c1` yielded a Hammett constant of 0.8. For `O=C(O)c1ccc(Br)cc1`, the Hammett constant in data set [1] is on record as 0.23. `CC(=O)[C@H]1CC[C@H]2[C@@H]3CCC4=CC(=O)CC[C@@H]4[C@H]3CC[C@]12C` displayed a Log 1/K in data set [2] of 6.82. In the case of `C[C@]12CCC(=O)C=C1CC[C@@H]1[C@@H]2CC[C@]2(C)C(=O)CC[C@@H]12`, the Log 1/K in data set [2] stood at 5.76; in data set [3] it was 7.46. In data set [1], `O=C(O)c1cccc(S(=O)(=O)C(F)(F)F)c1` displayed a Hammett constant of 0.79. On the same count and under the same terms, the result for `O=C(O)c1ccc(S(=O)(=O)C(F)(F)F)cc1` reads 0.93. `C[C@]12CCC(=O)C=C1CC[C@@H]1[C@@H]2[C@@H](O)C[C@@]2(C)[C@H]1CC[C@]2(O)C(=O)CO`: the Log 1/K in data set [2] turned out to be 7.88; in data set [3], 6.2. In turn, `O=C(O)c1cccc([N+](=O)[O-])c1` had a Hammett constant in data set [1] of 0.71. For the compound `O=C(O)c1cccc(CBr)c1`, in data set [1], the Hammett constant was 0.12.

As to `O=C(O)c1ccc(S)cc1`, the Hammett constant in data set [1] was 0.15. `O=C(O)c1ccc(O)cc1` [PARABEN] registered a Hammett constant in data set [1] of -0.37. The same measure, in the same setting: the result for `Cc1ccc(C(=O)O)cc1` [4-METHYLBENZOIC ACID] reads -0.17. Same read-out and setting: the result for `O=C(O)c1cccc(O)c1` [3-HYDROXYBENZOIC ACID] reads 0.12. Still for that read-out and setting: the result for `CSc1cccc(C(=O)O)c1` reads 0.15. For the compound `O=C(O)c1cccc(C(F)(F)C(F)(F)F)c1`, in data set [1], the Hammett constant is 0.47. Regarding `CC(=O)[C@H]1CC[C@H]2[C@@H]3CC=C4C[C@@H](O)CC[C@]4(C)[C@H]3CC[C@]12C`, the Log 1/K in data set [2] turned out to be 5.25; in data set [3], 7.15.

In data set [1], `O=C(O)c1ccc(S(=O)(=O)F)cc1` showed a Hammett constant of 0.91. Still for that read-out and setting: the result for `CC(C)(C)c1cccc(C(=O)O)c1` reads -0.1. In the case of `C[C@]12CCC(=O)C=C1CC[C@@H]1[C@@H]2CC[C@@]2(C)[C@H]1CC[C@]2(O)C(=O)CO`, the Log 1/K in data set [2] amounted to 7.88; in data set [3], 7.2. `O=C(O)c1ccc(C(F)(F)F)cc1` registered a Hammett constant in data set [1] of 0.54.

Compound `O=C(O)c1cccc(CCl)c1` displayed a Hammett constant in data set [1] of 0.11.

For the compound `C[C@]12CC[C@H](O)CC1=CC[C@@H]1[C@@H]2CC[C@]2(C)C(=O)CC[C@@H]12`, the Log 1/K is 5 in data set [2] and 7.82 in data set [3]. In turn, `CCc1ccc(C(=O)O)cc1` had a Hammett constant in data set [1] of -0.15.

The compound `CSc1ccc(C(=O)O)cc1` returned a Hammett constant in data set [1] of 0. Compound `C[C@]12CC[C@H]3[C@@H](CCC4=CC(=O)CC[C@@H]43)[C@@H]1CC[C@@H]2O` returned a Log 1/K in data set [2] of 6.14.

On to `CC(=O)[C@H]1CC[C@H]2[C@@H]3CCC4=CC(=O)CC[C@]4(C)[C@H]3CC[C@]12C`, for which the Log 1/K turned out to be 7.38 in data set [2] and 6.94 in data set [3]. On to `CS(=O)(=O)c1ccc(C(=O)O)cc1`, for which the Hammett constant in data set [1] was 0.72.

Regarding `C[C@]12CC[C@H]3[C@@H](CCC4=CC(=O)CC[C@@]43C)[C@@H]1CC[C@@H]2C(=O)CO`, the Log 1/K in data set [2] turned out to be 7.65; in data set [3], 7.38.

Regarding `C[C@]12CC[C@H]3[C@@H](CCC4=CC(=O)CC[C@@]43C)[C@@H]1CC[C@@H]2O`, the values for the Log 1/K in data set [2] and in data set [3] were 6.72 and 9.2, respectively. As to `O=C(O)c1ccc(CCl)cc1`, in data set [1], the Hammett constant was 0.12. Same read-out and setting: the result for `Nc1cccc(C(=O)O)c1` [3-AMINOBENZOIC ACID] reads -0.16.

`CS(=O)(=O)c1cccc(C(=O)O)c1` returned a Hammett constant in data set [1] of 0.6. Same read-out and setting: the result for `COc1cccc(C(=O)O)c1` reads 0.12.

In data set [2], `CC(=O)[C@H]1CC[C@H]2[C@@H]3CCC4=CC(=O)CC[C@]4(C)[C@H]3C(=O)C[C@]12C` registered a Log 1/K of 6.78. `C[C@]12CC[C@H](O)C[C@@H]1CC[C@@H]1[C@@H]2CC[C@]2(C)[C@@H](O)CC[C@@H]12`: the Log 1/K in data set [2] worked out at 5; in data set [3] it was 9.11. In turn, `C[C@@H]1C[C@@]2(C)C(=CC1=O)CC[C@H]1[C@@H]3CC[C@](O)(C(=O)CO)[C@@]3(C)C[C@H](O)[C@@]12F` gave a Log 1/K in data set [2] of 5.8. Turning to `C[C@]12CCC(=O)C=C1CC[C@@H]1[C@@H]2C(=O)C[C@@]2(C)[C@H]1CC[C@]2(O)C(=O)CO`, the Log 1/K in data set [2] was 6.89; in data set [3], 6.43. In data set [1], `CCc1cccc(C(=O)O)c1` returned a Hammett constant of -0.07. `Nc1ccc(C(=O)O)cc1` [AMINOBENZOIC ACID]: the Hammett constant in data set [1] is reported as -0.66. On to `C[C@]12C[C@H](O)[C@H]3[C@@H](CCC4=CC(=O)CC[C@@]43C)[C@@H]1CC[C@@H]2C(=O)CO`, for which the figures for the Log 1/K in data set [2] and in data set [3] were 7.88 and 6.34, respectively. With `O=C(O)c1cccc(C(F)(F)F)c1`, the Hammett constant in data set [1] is 0.43. On to `C[C@]12C[C@@H](O)[C@H]3[C@@H](CCC4=CC(=O)CC[C@@]43C)[C@@H]1CC[C@@H]2C(=O)CO`, for which the Log 1/K in data set [2] came to 7.2.

For `O=C(O)c1ccc(CI)cc1`, the Hammett constant in data set [1] worked out at 0.11. The compound `CC(=O)OCC(=O)[C@@]1(O)CCC2C3CCC4=CC(=O)CC[C@]4(C)C3C(O)C[C@@]21C` (some centres not stated) showed a Log 1/K in data set [2] of 7.55. On the same count and under the same terms, the result for `CC(=O)[C@@]1(C)CCC2C3CCC4=CC(=O)CC[C@]4(C)C3CC[C@@]21C` (some centres not stated) reads 7.12.

In the case of `O=C(O)c1ccc(OC(F)(F)F)cc1`, the Hammett constant in data set [1] is on record as 0.35. As for `CC(=O)[C@@]1(O)[C@H](O)C[C@H]2[C@@H]3CCC4=CC(=O)CC[C@]4(C)[C@H]3CC[C@@]21C`, the Log 1/K in data set [2] was 6.25. On to `O=C(O)c1ccc(C(F)(F)C(F)(F)F)cc1`, for which the Hammett constant in data set [1] came to 0.52. Same read-out and setting: the result for `O=C(O)c1ccc(F)cc1` reads 0.06; that for `O=C(O)c1cccc(F)c1`, 0.34. In the case of `C[C@]12C=CC(=O)C=C1CC[C@@H]1[C@@H]2[C@@H](O)C[C@@]2(C)[C@H]1CC[C@]2(O)C(=O)CO`, the Log 1/K in data set [2] was 7.51. Turning to `Cc1cccc(C(=O)O)c1`, the Hammett constant in data set [1] is listed as -0.07. With `O=C(O)c1cccc(OC(F)(F)F)c1`, in data set [1], the Hammett constant is recorded as 0.38. The same measure, in the same setting: the result for `CC(C)(C)c1ccc(C(=O)O)cc1` reads -0.2; that for `O=C(O)c1cccc(S)c1`, 0.25. Same read-out and setting: the result for `O=C(O)c1cccc(Cl)c1` reads 0.37; that for `O=C(O)c1ccc(I)cc1`, 0.18. On the same count and under the same terms, the result for `N#Cc1ccc(C(=O)O)cc1` reads 0.66. In data set [1], `O=C(O)c1cccc(I)c1` yielded a Hammett constant of 0.35. The same measure, in the same setting: the result for `COc1ccc(C(=O)O)cc1` [p-ANISIC ACID] reads -0.27. As for `O=C(O)c1ccccc1` [BENZOIC ACID], in data set [1], the Hammett constant worked out at 0.

For the compound `C[C@]12CCC(=O)C=C1CC[C@@H]1[C@@H]2[C@@H](O)C[C@]2(C=O)[C@@H](C(=O)CO)CC[C@@H]12`, the Log 1/K in data set [2] was 6.28; in data set [3], 5.32. On to `C[C@]12CC[C@@H]3c4ccc(O)cc4CC[C@H]3[C@@H]1C[C@@H](O)[C@@H]2O`, for which the Log 1/K in data set [2] stood at 5; in data set [3], 6.63. `O=C(O)c1ccc([N+](=O)[O-])cc1` [4-NITROBENZOIC ACID] came in with a Hammett constant in data set [1] of 0.78. The same measure, in the same setting: the result for `N#Cc1cccc(C(=O)O)c1` reads 0.56; that for `O=C(O)c1cccc(CI)c1`, 0.1; that for `O=C(O)c1cccc(SC(F)(F)F)c1`, 0.4. For the compound `CC(=O)[C@@]1(O)CC[C@H]2[C@@H]3CCC4=CC(=O)CC[C@]4(C)[C@H]3CC[C@@]21C`, the figures for the Log 1/K in data set [2] and in data set [3] were 7.74 and 7, respectively. The corresponding values for `CC(=O)[C@@]1(O)CC[C@H]2[C@@H]3CC=C4C[C@@H](O)CC[C@]4(C)[C@H]3CC[C@@]21C` are 5 and 6.36. In data set [1], `O=C(O)c1ccc(CBr)cc1` registered a Hammett constant of 0.14. The same measure, in the same setting: the result for `O=C(O)c1cccc(Br)c1` reads 0.39.
